# Results from patent US20240131168A1, “NAPHTHALENE RING-CONTAINING COMPOUND, PHARMACEUTICAL COMPOSITION CONTAINING SAME, AND USE THEREOF” (JIANGSU YAHONG MEDITECH CO., LTD., priority 2021, published 2024).
# Legend:
# Type in all cases: cell-based
# MCF-7 = experiment: CellTiter-Glo cell proliferation inhibition, MCF-7 (Effect Example 2); details: Homo sapiens, MCF7, 144 h, MCF-7 (CTG), 6 days, starting concentration 10 μM; for inhibition at up to 10 µM: read-out: IH % max (maximum inhibition percentage)
# Summary of the method: (§1)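 MCF-7, TamR-MCF-7, and CRISPR-edited MCF-7 ER D538G or Y537S cells were seeded at 1,000 or 2,000 cells/well in EMEM and cultured 24 h. They were then exposed to a 4-fold, 10-point series (top 10 µM before addition to wells) for 6 days or 72 h at 37 °C. CellTiter-Glo luminescence gave IC50 and maximum % inhibition.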
# TamR-MCF-7 = experiment: CellTiter-Glo cell proliferation inhibition, TamR-MCF-7; details: 144 h, TamR-MCF-7 (CTG), 6 days, starting concentration 10 μM; for inhibition at up to 10 µM: read-out: IH % max (maximum inhibition percentage)
# Description: (§2) 1. Cell line • (1) Breast cancer cell lines and their culture media: • MCF-7 (ATCC; Cat. No.: HTB-22), a Luminal A breast cancer cell; • TamR-MCF-7 (ATCC; Cat. No.: CRL-3435), a breast cancer cell; • MCF-7 ER^D538G: a Luminal A breast cancer cell obtained by constructing MCF-7 (ATCC; Cat. No.: HTB-22) using CRISPR-Cas9 gene editing technology; • MCF-7 ER^Y537S: a Luminal A breast cancer cell obtained by constructing MCF-7 (ATCC; Cat. No.: HTB-22) using CRISPR-Cas9 gene editing technology; • MDA-MB-231: (manufacturer: Nanjing CoBioer Biosciences Co., Ltd.), a triple-negative breast cancer cell; • MDA-MB-468: (manufacturer: Nanjing CoBioer Biosciences Co., Ltd.), a triple-negative breast cancer cell.
# (§3) Herein, the culture medium of MCF-7, TamR-MCF-7, MCF-7 ER^D538G, and MCF-7 ER^Y537S was EMEM; • the culture medium of MDA-MB-231 and MDA-MB-468 was DMEM.
# (§4) 2. Reagents • Culture medium EMEM (Gibco, 1964507) • Culture medium DMEM (Gibco, 12430-054) • Fetal bovine serum (Gibco, 10091148) • Penicillin-streptomycin double antibody (Gibco, S110JV) • DPBS (Gibco, 14190-144) • CellTiter-Glo® assay kit (Promega, G7573) • Trypsin (0.25%) (Gibco, 25200-056) • DMSO (Sigma, D2650)
# (§5) 3. Instruments • Biosafety cabinet (AIRTECH, BSC-1300A II) • Automated cell counter (Life Technologies, countess II) • Multifunctional microplate reader (Biotek, H1FM) • Orbital shaker (Hangzhou Allsheng Instruments Co., Ltd., OS-100) • XLFIT 5.3 (Inforstack Shanghai Co., Ltd.)
# (§6) For this test method, the following experiments were performed in a biosafety cabinet, with the specific steps as follows: • (1) Cells were inoculated in a 96-well plate. One day later, the previous culture medium was poured off, 5 mL of DPBS was added to wash the cells, and then DPBS was pipetted and discarded. An appropriate amount of trypsin was then added. The plate was digested in a 37° C., 5% CO2 cell incubator for about 2 to 5 minutes and then taken out. Anew corresponding culture medium was added, and pipetted up and down to resuspend the cells evenly. The cells were then counted using an automated cell counter. • (2) Each cell was inoculated in columns 1 to 11 of a 96-well plate (Corning, Cat. No.: 3610) at a density of 1,000 or 2,000 cells per well in 100 μL of culture medium, and 100 μL of the corresponding culture medium without cells was added to the wells in column 12. The plate was then placed in a 37° C., 5% CO2 incubator for 24 hours. • (3) The compound of the present disclosure and the control drug fulvestrant (Selleck; Cat. No.: S1191) were then 4-fold serially diluted to 10 dose points starting at 10 μM. 10 μL of the serially diluted compound was pipetted and added to 100 μL of cells in columns 1 to 10, and 10 μL of the corresponding culture medium containing 0.33 v % DMSO was added to both columns 11 and 12. The plate was incubated in a 37° C., 5% CO2 incubator for 6 days or 72 hours (Note: column 11 was used as a MAX well with cells but without compound; column 12 was used as a MIN well without cells […]). • (4) The cell viability detection reagent in the CellTiter-Glo® assay kit was then added to the 96-well plate at 50 μL per well according to the instructions, and shaken on an orbital shaker in the dark for 5 to 10 minutes. The cell viability was then measured using a multifunctional microplate reader. Finally, the inhibition of cell proliferation by the compound of the present disclosure was plotted by XLFIT software, and the IC50 value (half inhibitory concentration) and the IH % max (maximum inhibition percentage) of the compound of the present disclosure were calculated.
# MCF-7 ER^D538G = experiment: CellTiter-Glo cell proliferation inhibition, MCF-7 ER^D538G; details: Homo sapiens, MCF7, 144 h, MCF-7 ER^D538G (CTG), 6 days, starting concentration 10 μM; for inhibition at up to 10 µM: read-out: IH % max (maximum inhibition percentage)
# Summary of the method: as §1
# MCF-7 ER^Y537S = experiment: CellTiter-Glo cell proliferation inhibition, MCF-7 ER^Y537S; details: Homo sapiens, MCF7, 144 h, MCF-7 ER^Y537S (CTG), 6 days, starting concentration 10 μM; for inhibition at up to 10 µM: read-out: IH % max (maximum inhibition percentage)
# Description: as §2, §3, §4, §5, §6
# MDA-MB-231 = experiment: CellTiter-Glo cell proliferation inhibition, MDA-MB-231; details: Homo sapiens, 144 h, MDA-MB-231 (CTG), 6 days, starting concentration 10 μM; for inhibition at up to 10 µM: read-out: IH % max (maximum inhibition percentage)
# Description: as §2, §3, §4, §5, §6
# Compounds D64 to D69 were tested for MDA-MB-231 (CTG) and MDA-MB-468 (CTG) with an incubation time of 72 hours in the incubator.
# MDA-MB-468 = experiment: CellTiter-Glo cell proliferation inhibition, MDA-MB-468; details: Homo sapiens, 144 h, MDA-MB-468 (CTG), 6 days, starting concentration 10 μM; for inhibition at up to 10 µM: read-out: IH % max (maximum inhibition percentage)
SMILES,IC50 (MCF-7) [µM],IC50 (TamR-MCF-7) [µM],IC50 (MCF-7 ER^D538G) [µM],IC50 (MCF-7 ER^Y537S) [µM],IC50 (MDA-MB-231) [µM],IC50 (MDA-MB-468) [µM],inhibition at up to 10 µM (MCF-7) [%],inhibition at up to 10 µM (TamR-MCF-7) [%],inhibition at up to 10 µM (MCF-7 ER^D538G) [%],inhibition at up to 10 µM (MCF-7 ER^Y537S) [%],inhibition at up to 10 µM (MDA-MB-231) [%],inhibition at up to 10 µM (MDA-MB-468) [%]
"CCN(CCNc1cccc2c1CN(C1CCC(=O)NC1=O)C2=O)CCOc1ccc(Oc2c(-c3ccc(S(C)(=O)=O)cc3)ccc3cc(O)ccc23)cc1 (stereo not shown) [Compound D17, 3-(4-((2-(ethyl(2-(4-((6-hydroxy-2-(4-(methylsulfonyl)phenyl)naphthalen-1-yl)oxy)phenoxy)ethyl)amino)ethyl)amino)-1-oxoisoindolin-2-yl)piperidine-2,6-dione]",,,,,,,58,39,86,77,87,
"CCN(CCOCCOc1cccc2c1C(=O)N(C1CCC(=O)NC1=O)C2=O)CCOc1ccc(Oc2c(-c3ccc(S(C)(=O)=O)cc3)ccc3cc(O)ccc23)cc1 (stereo not shown) [Compound D18, 2-(2,6-dioxopiperidin-3-yl)-4-(2-(2-(ethyl(2-(4-((6-hydroxy-2-(4-(methylsulfonyl)phenyl)naphthalen-1-yl)oxy)phenoxy)ethyl)amino)ethoxy)ethoxy)isoindoline-1,3-dione]",,,,,,,39,,81,67,41,
"C[C@@H]1CN(CCOCC(=O)Nc2cccc3c2CN(C2CCC(=O)NC2=O)C3=O)[C@@H](C)CN1CCOc1ccc(Oc2c(-c3ccc(S(C)(=O)=O)cc3)ccc3cc(O)ccc23)cc1 (stereo partly drawn) [Compound D25, N-(2-(2,6-dioxopiperidin-3-yl)-1-oxoisoindolin-4-yl)-2-(2-((2S,5R)-4-(2-(4-((6-hydroxy-2-(4-(methylsulfonyl)phenyl)naphthalen-1-yl)oxy)phenoxy)ethyl)-2,5-dimethylpiperazin-1-yl)ethoxy)acetamide]",,,,,,,62,,86,59,53,96

# More lines, main results first:
IC50 (MCF-7) [µM],IC50 (TamR-MCF-7) [µM],IC50 (MCF-7 ER^D538G) [µM],IC50 (MCF-7 ER^Y537S) [µM],IC50 (MDA-MB-231) [µM],IC50 (MDA-MB-468) [µM],SMILES,inhibition at up to 10 µM (MCF-7) [%],inhibition at up to 10 µM (TamR-MCF-7) [%],inhibition at up to 10 µM (MCF-7 ER^D538G) [%],inhibition at up to 10 µM (MCF-7 ER^Y537S) [%],inhibition at up to 10 µM (MDA-MB-231) [%],inhibition at up to 10 µM (MDA-MB-468) [%]
0.0277,0.0374,0.0884,0.968,0.0051,0.0058,"CS(=O)(=O)c1ccc(-c2ccc3cc(O)ccc3c2Oc2ccc(OCCN3CCN(c4ccc5c(c4)CN(C4CCC(=O)NC4=O)C5=O)CC3)cc2)cc1 (stereo not shown) [Compound D2, 3-(5-(4-(2-(4-((6-hydroxy-2-(4-(methylsulfonyl)phenyl)naphthalen-1-yl)oxy)phenoxy)ethyl)piperazin-1-yl)-1-oxoisoindolin-2-yl)piperidine-2,6-dione]",100,94,93,80,100,99
0.133,0.331,0.428,,0.102,0.26,"CS(=O)(=O)c1ccc(-c2ccc3cc(O)ccc3c2Oc2ccc(OCCN3CCN(c4ccc5c(c4)C(=O)N(C4CCC(=O)NC4=O)C5=O)CC3)cc2)cc1 (stereo not shown) [Compound D6, 2-(2,6-dioxopiperidin-3-yl)-5-(4-(2-(4-((6-hydroxy-2-(4-(methylsulfonyl)phenyl)naphthalen-1-yl)oxy)phenoxy)ethyl)piperazin-1-yl)isoindoline-1,3-dione]",100,90,91,78,100,98
,,0.83,,,,CCN(CCOCCOCC(=O)N1CCN(c2cccc3c2CN(C2CCC(=O)NC2=O)C3=O)CC1)CCOc1ccc(Oc2c(-c3ccc(S(C)(=O)=O)cc3)ccc3cc(O)ccc23)cc1 (stereo not shown) [Compound D47],31,,89,73,83,94
